# Data taken from paper PMC5298231, “The Malaria Parasite's Lactate Transporter PfFNT Is the Target of Antiplasmodial Compounds Identified in Whole Cell Phenotypic Screens” (PLoS Pathogens, 2017).
# Peptide text beside a SMILES is read from it.
# Test system: erythrocytes infected with 3D7 trophozoites
# Format: cell-based, Plasmodium falciparum
# Details: sheet Ratio; for Ratio of metabolite abundance, Exp1_1hr: Exp1, 1hr; for Ratio of metabolite abundance, Exp1_3hr: Exp1, 3hr; for Ratio of metabolite abundance, Exp1_6hr: Exp1, 6hr; for Ratio of metabolite abundance, Exp2_1hr: Exp2, 1hr; for Ratio of metabolite abundance, Exp2_3hr: Exp2, 3hr; for Ratio of metabolite abundance, Exp2_6hr: Exp2, 6hr; for Ratio of metabolite abundance, Exp3_1hr: Exp3, 1hr; for Ratio of metabolite abundance, Exp3_3hr: Exp3, 3hr; for Ratio of metabolite abundance, Exp3_6hr: Exp3, 6hr
SMILES,"Ratio of metabolite abundance, Exp1_1hr","Ratio of metabolite abundance, Exp1_3hr","Ratio of metabolite abundance, Exp1_6hr","Ratio of metabolite abundance, Exp2_1hr","Ratio of metabolite abundance, Exp2_3hr","Ratio of metabolite abundance, Exp2_6hr","Ratio of metabolite abundance, Exp3_1hr","Ratio of metabolite abundance, Exp3_3hr","Ratio of metabolite abundance, Exp3_6hr"
O=c1[nH]cnc2c1ncn2[C@@H]1O[C@H](COP(=O)(O)OP(=O)(O)O)[C@@H](O)[C@H]1O [IDP],0.8853,1.384,1.314,0.5363,0.6148,0.824,1.461,1.458,1.561
CC(C)C[C@H](N)C(=O)N[C@@H](CC(=O)O)C(=O)O [LD] (H-Leu-Asp-OH),1.295,0.7458,0.9103,1.486,1.077,1.185,1.151,1.268,1.201
CC(O)C(=O)O (stereo not drawn) [Lactate],8.023,5.339,5.015,5.913,7.877,8.247,2.842,5.6661,4.424
CC(=O)N[C@@H](CCC(=O)O)C(=O)O [N-Acetyl-glutamate],1.252,0.8243,0.4492,1.417,0.7877,0.6113,0.5549,0.2844,0.3771
NC(=O)N[C@@H](CC(=O)O)C(=O)O [N-Carbamoyl-L-aspartate],0.3523,0.4866,0.4355,0.4532,0.2641,0.4319,0.3568,0.3426,0.2976
NC(=O)c1ccc[n+]([C@@H]2O[C@H](COP(=O)([O-])OP(=O)(O)OC[C@H]3O[C@@H](n4cnc5c(N)ncnc54)[C@H](O)[C@@H]3O)[C@@H](O)[C@H]2O)c1 [NAD+],1.033,0.9084,1.09,0.9571,1.088,1.117,1.081,1.082,1.084
NC(=O)C1=CN([C@@H]2O[C@H](COP(=O)(O)OP(=O)(O)OC[C@H]3O[C@@H](n4cnc5c(N)ncnc54)[C@H](O)[C@@H]3O)[C@@H](O)[C@H]2O)C=CC1 [NADH],0.4095,0.2777,0.1491,0.4801,0.5784,0.1509,0.301,0.1742,0.1364
NC(=O)c1ccc[n+]([C@@H]2O[C@H](COP(=O)([O-])OP(=O)(O)OC[C@H]3O[C@@H](n4cnc5c(N)ncnc54)[C@H](OP(=O)(O)O)[C@@H]3O)[C@@H](O)[C@H]2O)c1 [NADP+],0.7131,0.6937,0.7662,1.042,0.9729,0.8073,0.7811,0.7388,0.8166
O=C(O)c1cc(=O)[nH]c(=O)[nH]1 [Orotate],0.5025,0.4692,0.3315,0.4622,0.4131,0.4313,0.3435,0.2448,0.2332
C[C@H](NC(=O)[C@@H]1CCCN1)C(=O)N[C@@H](CCC(=O)O)C(=O)N[C@@H](Cc1ccccc1)C(=O)O [PAEF] (H-PAEF-OH),0.6152,0.1924,1.448,0.9598,0.5962,1.961,0.6833,0.575,1.883
CC(C)[C@H](NC(=O)[C@H](C)NC(=O)[C@@H]1CCCN1)C(=O)N[C@@H](Cc1c[nH]cn1)C(=O)O [PAVH],0.3897,0.1614,0.8308,0.6106,0.3696,0.9246,0.514,0.3038,1.108
CC(C)[C@H](NC(=O)[C@H](C)NC(=O)[C@H](CC(=O)O)NC(=O)[C@@H]1CCCN1)C(=O)O [PDAV] (H-PDAV-OH),1.025,1.041,2.029,1.45,1.498,2.552,1.376,1.38,2.341
O=C(O)C[C@H](NC(=O)[C@@H]1CCCN1)C(=O)O [PD] (H-Pro-Asp-OH),1.093,0.9772,1.538,1.264,1.209,2.9187,1.287,1.3146,2.682
O=C(O)CC[C@H](NC(=O)[C@H](CCC(=O)O)NC(=O)[C@@H]1CCCN1)C(=O)O [PEE] (H-Pro-Glu-Glu-OH),1.088,0.6949,2.228,1.338,0.8845,1.822,1.136,1.044,2.15
O=C(O)CC[C@H](NC(=O)[C@@H]1CCCN1)C(=O)O [PE] (H-Pro-Glu-OH),2.339,1.989,3.207,2.25,1.648,3.078,2.352,2.042,3.469
O=C(O)[C@H](Cc1ccccc1)NC(=O)[C@H](Cc1cnc[nH]1)NC(=O)[C@@H]1CCCN1 [PHF] (H-Pro-His-Phe-OH),1.822,0.7039,1.872,2.081,1.353,2.7014,2.437,1.168,1.525
